This experiment deals with Phakopsora pachyrhizi. Briefly: Protective control of soy bean rust on soy beans (Phakpa P1), green house. Conditions: 300 ppm active substance, sprayed 1 day before inoculation, assessed after fourteen days; untreated plants 90% infected. The class given is in vivo, Phakopsora pachyrhizi on soy bean seedlings. How it is done: The spray solutions were prepared in several steps:
The stock solution were prepared: a mixture of acetone and/or dimethylsulfoxide and the wetting agent/emulsifier Wettol, which is based on ethoxylated alkylphenoles, in a relation (volume) solvent-emulsifier of 99 to 1 was added to 25 mg of the compound to give a total of 5 ml. Water was then added to total volume of 100 ml. This stock solution was diluted with the described solvent-emulsifier-water mixture to the given concentration. 1. Protective control of soy bean rust on soy beans caused by Phakopsora pachyrhizi (Phakpa P1)
Leaves of pot-grown soy bean seedlings were sprayed to run-off with an aqueous suspension, containing the concentration of active ingredient or their mixture as described below. The plants were allowed to air-dry. The trial plants were cultivated for 1 day in a greenhouse chamber at 23-27° C. and a relative humidity between 60 and 80%.Then the plants were inoculated with spores of Phakopsora pachyrhizi. To ensure the success the artificial inoculation, the plants were transferred to a humid chamber with a relative humidity of about 95% and 20 to 24 C for 24 h. The trial plants were cultivated for fourteen days in a greenhouse chamber at 23-27° C. and a relative humidity between 60 and 80%. The extent of fungal attack on the leaves was visually assessed as % diseased leaf area.

Take `CC(O)(Cn1cncn1)c1ccc(Oc2ccc(Cl)cc2Cl)cc1Cl` (stereo not shown) [I-1, 2-[2-chloro-4-(2,4-dichlorophenoxy)phenyl]-1-(1,2,4-triazol-1-yl)propan-2-ol]: the “infection (extent of fungal attack, % diseased leaf area)” value turned out to be 10%.

Source of the values: patent US9137996B2, “Fungicidal alkyl- and aryl-substituted 2[-2-chloro-4-(dihalo-phenoxy)-phenyl]-1-[1,2,4]triazol-1-yl-ethanol compounds” (BASF SE, priority 2011, dated 2015).
